US9266890B2, “Pyrimido-diazepinone kinase scaffold compounds and methods of treating disorders” (Dana-Farber Cancer Institute, Inc., priority 2009, dated 2016)

Target: Plk1 (Homo sapiens (Human), UniProt P53350)
Assay: Plk1 Cellular Assay - Mitotic Arrest Assay
Assay type: cell-based
Details: Hela cells, immunofluorescence microscopy, 24 hours post-treatment
Protocol: FIG. 2. […] Using immunofluorescence microscopy the cells were located by their DNA stain (Hoechst) and were then scored for phospho H3 positivity. Cells that are arrested in mitosis are phospho H3 positive.
Hela cells were plated at roughly 80% cell density on poly-lysine coated glass coverslips. After 24 hours the medium* was removed and fresh medium supplemented with test compounds was added. Twenty-four hours post-treatment the medium was removed, the coverslips were washed once with phosphate-buffered saline (PBS), pH 7.4 and the cells fixed for 10 minutes at room temperature using the following fixative solution: 100 mM K-Pipes, pH 6.8, 10 mM EGTA, 1 mM MgCl2, 0.2% Triton X-100, 3% formaldehyde. The coverslips were washed 3× with Tris-buffered saline solution (50 mM Tris-HCl pH 7.4, 150 mM NaCl) containing 0.1% Triton X-100 (TBST). The samples were blocked using 2% bovine serum albumin (BSA) in TBST. The samples were then incubated with a phosphorylation-specific antibody against histone 3 (phospho H3) serine-10 (Upstate, 1:500-1:1000) in blocking solution. Cells can also optionally be stained for tubulin as well using appropriate antibodies. After a 2-hr. incubation at room temperature (or 4° C. overnight), the samples were washed 3× with TBST. The samples were then incubated with an appropriate secondary antibody in blocking solution for 1-2 hrs at room temperature (or 4° C. overnight). […] The samples were washed 3× with TBST and mounted onto glass slides using Prolong Gold Antifade Reagent (Invitrogen). See FIGS. 2 and 3. *Hela/U2OS medium—Dulbecco's Modified Eagle's Medium (DMEM, Sigma), 10% fetal bovine serum, 1% penicillin/streptomycin

Sequence of Plk1 (P53350 whole entry): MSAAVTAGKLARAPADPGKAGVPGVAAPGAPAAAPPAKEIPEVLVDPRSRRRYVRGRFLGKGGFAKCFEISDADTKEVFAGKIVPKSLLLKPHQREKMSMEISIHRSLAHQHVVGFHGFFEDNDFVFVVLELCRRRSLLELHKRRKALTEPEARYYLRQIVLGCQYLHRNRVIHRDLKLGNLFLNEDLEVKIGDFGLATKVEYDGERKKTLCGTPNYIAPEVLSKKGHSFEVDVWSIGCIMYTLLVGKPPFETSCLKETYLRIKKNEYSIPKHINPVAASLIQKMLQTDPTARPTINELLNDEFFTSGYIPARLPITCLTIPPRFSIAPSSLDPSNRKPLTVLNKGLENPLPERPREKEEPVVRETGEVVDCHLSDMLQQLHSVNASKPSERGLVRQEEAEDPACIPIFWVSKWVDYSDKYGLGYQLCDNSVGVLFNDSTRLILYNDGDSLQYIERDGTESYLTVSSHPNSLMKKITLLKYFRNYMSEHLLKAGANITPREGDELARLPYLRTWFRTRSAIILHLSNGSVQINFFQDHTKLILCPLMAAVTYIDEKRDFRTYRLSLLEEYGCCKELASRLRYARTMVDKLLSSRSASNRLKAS

Compound | mitotic arrest (phospho H3 positivity)
COc1cc(C(=O)NC2CCN(C)CC2)ccc1Nc1ncc2c(n1)N(C1CCCC1)C(C)CC(=O)N2C (stereo not drawn) [Compound I-4] | induce a strong mitotic arrest
COc1cc(C(=O)NC2CCN(C)CC2)ccc1Nc1ncc2c(n1)N(C1CCCC1)CC(C)C(=O)N2C (stereo not drawn) [Compound I-5] | induce a strong mitotic arrest
COc1cc(N2CCC(O)CC2)ccc1Nc1ncc2c(n1)N(C1CCCC1)CCC(=O)N2C [Compound I-6] | do not
COc1cc(N(C)CCO)ccc1Nc1ncc2c(n1)N(C1CCCC1)CCC(=O)N2C [Compound I-7] | do not
COc1cc(N(C)CCCO)ccc1Nc1ncc2c(n1)N(C1CCCC1)CCC(=O)N2C [Compound I-8] | do not

Target: Mps1 (TTK) (Homo sapiens (Human), UniProt P33981)
Sequence (P33981 whole entry): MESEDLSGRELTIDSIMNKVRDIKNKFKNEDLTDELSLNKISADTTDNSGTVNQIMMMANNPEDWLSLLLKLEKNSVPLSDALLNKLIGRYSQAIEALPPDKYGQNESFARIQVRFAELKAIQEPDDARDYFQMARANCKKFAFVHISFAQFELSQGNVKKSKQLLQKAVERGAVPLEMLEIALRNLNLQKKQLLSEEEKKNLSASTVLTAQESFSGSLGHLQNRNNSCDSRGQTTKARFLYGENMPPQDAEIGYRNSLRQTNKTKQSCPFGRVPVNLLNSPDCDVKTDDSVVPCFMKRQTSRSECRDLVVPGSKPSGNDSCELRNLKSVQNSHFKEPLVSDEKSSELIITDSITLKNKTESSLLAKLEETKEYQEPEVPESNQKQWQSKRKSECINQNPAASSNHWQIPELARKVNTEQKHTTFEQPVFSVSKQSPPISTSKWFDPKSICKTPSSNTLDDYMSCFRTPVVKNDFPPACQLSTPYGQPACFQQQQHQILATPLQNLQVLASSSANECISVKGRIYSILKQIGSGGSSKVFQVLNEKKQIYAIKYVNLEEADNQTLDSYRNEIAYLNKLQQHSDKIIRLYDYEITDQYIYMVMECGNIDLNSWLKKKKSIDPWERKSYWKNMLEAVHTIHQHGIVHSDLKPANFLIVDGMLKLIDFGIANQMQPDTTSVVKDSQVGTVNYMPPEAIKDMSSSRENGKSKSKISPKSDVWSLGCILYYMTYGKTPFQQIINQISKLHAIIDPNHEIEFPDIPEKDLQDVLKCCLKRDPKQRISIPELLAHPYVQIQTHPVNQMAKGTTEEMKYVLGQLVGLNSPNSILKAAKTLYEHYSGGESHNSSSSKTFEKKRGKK
Assay: Mps1 (TTK) Cellular Assay - Mitotic Escape Assay
Assay type: cell-based
Details: Hela cells arrested with thymidine then nocodazole (0.33 μM); compound 0.25-10 uM for 2 hrs
Protocol: FIG. 1. […] Hela cells were arrested in mitosis using the following protocol. Cells were treated with thymidine (2.5 mM) for 24 hours. Cells were released into medium containing nocodazole (0.33 μM). After 16 hrs. cells were treated with I-10 a range of concentrations (0.25, 0.5, 1, 2, 5 and 10 uM) shown above for 2 hrs. Cells were harvested and the levels of cyclin B (a marker for mitosis) were determined by immunoblot. High cyclin B levels indicated mitotic cells, while low cyclin B levels indicate cells have exited nocodazole-induced mitotic arrest.
Hela (or U2OS cells) were plated at roughly 30-35% cell density. After 24 hours the medium* was removed and fresh medium supplemented with 2.5 mM thymidine was added to arrest cells at the G1/S transition. After 24 hours in thymidine block the medium was removed, the cells were washed 3× with PBS and replaced with medium supplemented with 330 nM nocodazole (Noc). The cells were incubated with nocodazole for 16-18 hours to produce a mitotic arrest. […] After 2 hours, the cells were harvested, lysed in RIPA buffer, and the levels of cyclin B or phosphorylated Histone 3 (Ser10) determined by western blotting. Alternatively, cells were treated on coverslips, fixed, and phosphorylated Histone 3 levels determined by immunofluorescence. […]

Compound | escape from mitosis (cyclin B levels by immunoblot)
CCOc1cc(N2CCC(O)CC2)ccc1Nc1ncc2c(n1)N(C1CCCC1)CCC(=O)N2C [Compound I-10] | induces escape from mitosis
